Experiment [1] relates to mechanical hypersensitivity. On the set-up: method as in PMID 30157134, PMID 32677089. To be noted: cited from earlier work.
Experiment [2] relates to p-ACC in mouse DRG neurons. The experiment in a line: p-ACC immunocytochemistry in cultured DRG neurons. Conditions: 16 h; FEM-1689 10, 100, 1,000 nM; A769662 100 µM; wild-type and TMEM97KO neurons. The format is cell-based. On the procedure: (§1) The ICC protocol was based on a previously published protocol ([76]). […] Cells were blocked with 10% normal goat serum (NGS) in PBS-triton X (0.1%). […] Antibodies were incubated at 4 °C overnight. […] It was washed with PBS twice. […] Images were analyzed using Olympus CellSens. […] Number of cells analyzed are detailed in SI Appendix, Tables S3 and S4. […]
(§2) T his BSA gradient containing the cells was centrifuged at 900g for 5 min at room temperatur e.
(§3) The pellet containing the cells was resuspended in Br ainPhys media (STEMCell #05790) containing 2% […]
(§4) 1% Gluta Max (Gibco # 350 5 0061). Hu man DRG ne uron s were plated a nd grown o n glass coverslips coate d with po ly-D-lysine (Sigma #P7405). C ultured D RG neurons were plated for 24 hours before being treated.
(§5) Methylglyoxal (Sigma- Aldrich #M0252) and F EM- 1689 were serially diluted in media.
(§6) Mouse samples - DRG cultures […]
(§7) anesthesia and decapitated. […]
(§8) section above with minor differences.
(§9) Mouse DRG neurons were grown in
(§10) SAS-0132 and DKR-1677 were […]
(§11) dissolved in 100% DMSO to a final concentr ation of 200mM and stored at - 20 °C. and DKR-1677 were serially diluted in media. Untreated media was completely replaced with media containing each compound. […]
(§12) Slides were […]
incubated with 1:2 diluted hydrogen peroxide in distilled water for 10 min at r oom temper ature and washed twice in distilled water. […]

For the next experiment, the system named is retinal ganglion cells. Details: method as in PMID 36456686. Conditions: ischemia/reperfusion injury; cited from earlier work.
Experiment [3] deals with p-eIF2α in mouse DRG neurons. The experiment in a line: p-eIF2α immunocytochemistry in cultured DRG neurons. Conditions: 16 h; for phosphorylation of eIF2α: wild-type mouse DRG neurons, 10, 30, 100, 300 nM; for p-eIF2α levels: ISRIB 200 nM. The format is cell-based. How it is done:
as §1, §2, §3, §4, §5, §6, §7, §8, §9, §10, §11, §12
(§13) incubated with 1:2 diluted hydrogen peroxide in distilled water for 10 min at r oom temper ature and washed twice in distilled water. The protease IV was applied to each section and incubated for 5 min at room temperature. Slides were w ashed twice in 1X PBS and RNA scope was performed immediately. A mixture of probes - Tmem97, Scn10a, and Fabp7 – was hybridized for 2 hours at 40 °C in a humidity control tray

The subject of experiment [4] is models of traumatic brain injury (TBI). To be noted: blast injury and controlled cortical impact models; cited from earlier work.
A further experiment concerns BiP in mouse DRG neurons. In words: BiP immunocytochemistry in cultured DRG neurons. It counts as cell-based. To be noted: ISRIB 200 nM. How it is done: as §1, §2, §3, §4, §5, §6, §7, §8, §9, §10, §11, §12, §13
The test system of a further experiment is neurite outgrowth. Details: method as in PMID 31836389. Conditions: cited from earlier work.
The test system of experiment [5] is MGO-induced mechanical hypersensitivity, wild-type mice. The experiment in a line: Methylglyoxal-induced mechanical hypersensitivity. It counts as in vivo, mouse.
For experiment [6], the system named is p-eIF2α in human DRG neurons. The experiment in a line: p-eIF2α immunocytochemistry in cultured human DRG neurons. It counts as cell-based. Conditions: MGO 1 µM.
The test system of experiment [7] is mouse model of neuropathic pain. Details: method as in PMID 28644012, PMID 27926996. Conditions: cited from earlier work; for mechanical hypersensitivity / antinociceptive effect: mouse neuropathic pain model.
The subject of experiment [8] is animal models of age-related neurodegeneration. On the set-up: method as in PMID 27926996, PMID 29426225. To be noted: cited from earlier work.
For experiment [9], the system named is neuronal toxicity induced by mutant huntingtin protein. On the set-up: method as in PMID 36108101. To be noted: model of Huntington's disease; cited from earlier work.
In another experiment the target is BZP Rat Brain. The experiment in a line: PDSP competitive binding assay. To be noted: dose response curve.

The structures appear in SMILES notation. “Also recorded” adds a separate entry of the source.

The values below come from publication PMC10756276, “Highly specific σ2R/TMEM97 ligand FEM-1689 alleviates neuropathic pain and inhibits the integrated stress response” (Proceedings of the National Academy of Sciences of the …, 2023).

One may read the Ki as a dissociation constant, usually derived from enzyme kinetics or from competition with a known ligand.

For `O=C(O)CCCc1ccccc1` [4-PBA], the “duration of efficacy on mechanical hypersensitivity in vivo” value in experiment [1] is on record as “hours”.
On to `N#Cc1c(O)c2c(-c3ccc(-c4ccccc4O)cc3)csc2[nH]c1=O` [A769662, reference compound], for which the p-ACC levels entry in experiment [2] is “elevate; also recorded: increased p-ACC levels in both wild-type and TMEM97KO neurons”.
Regarding `CCCN1CCN(c2ccc3c(c2)C2CC3CCN2C(=O)OCc2ccccc2)CC1` (stereo not shown) [DKR-1677, reference compound], in the experiment on retinal ganglion cells, the “protection of retinal ganglion cells” value is on record as “protects retinal ganglion cells from ischemia/reperfusion injury”. Further, in experiment [3], the “phosphorylation of eIF2α” value was “promote the phosphorylation of eIF2α; also recorded: stimulate the ISR by promoting the phosphorylation of eIF2α”. In experiment [4], the “protection in traumatic brain injury” value was “protective in two different models of traumatic brain injury”.
`O=C(COc1ccc(Cl)cc1)NC1CCC(NC(=O)COc2ccc(Cl)cc2)CC1` (stereo not shown) [ISRIB, reference compound]: the BiP levels entry with BiP in mouse DRG neurons (TMEM97KO mouse DRG neurons) and in the experiment on BiP in mouse DRG neurons (wild-type mouse DRG neurons) was “reduce BiP levels” throughout. Further, the neurite outgrowth entry in the experiment on neurite outgrowth was “enhances neurite outgrowth”. Also, in experiment [5] (ISRIB 2.5 mg/kg IP), the “time after drug administration at which antiallodynic effects were observed” value was found to be 3 h. Also, the MGO-induced mechanical hypersensitivity result in experiment [5] (MGO 20 ng intraplantar, FEM-1689 20 mg/kg IV or ISRIB 2.5 mg/kg IP 24 h after MGO) is “transient; also recorded: reverted to a hypersensitive state 24 h after injection”. The figures for the p-eIF2α levels result in experiment [3] (TMEM97KO mouse DRG neurons) and in [3] (wild-type mouse DRG neurons) were “failed to change p-eIF2α immunoreactivity” and “reduced p-eIF2α levels in wild-type neurons”, respectively. For the same compound, in experiment [1], the “duration of efficacy on mechanical hypersensitivity in vivo” value is reported as “hours”.
Take `CC(=O)C=O` [MGO, Methylglyoxal, reference compound]: the p-eIF2α levels entry in experiment [6] was “increased p-eIF2α levels”.
On to `CN1CCN(c2ccc3c(c2)C2CC3CCN2C(=O)OCc2ccccc2)CC1` (stereo not shown) [SAS-0132], for which, in [7], the “effect on the antinociceptive effects of UKH-1114” value is given as “inhibit the antinociceptive effects of UKH-1114; also recorded: blocks the antinociceptive activity of UKH-1114” and the “mechanical hypersensitivity / antinociceptive effect” value is recorded as “has no antinociceptive effect on its own”. Besides, the “neuroprotection and cognitive performance” value in experiment [8] was “neuroprotective and improves cognitive performance”. Moreover, in experiment [3], the “phosphorylation of eIF2α” value is “promote the phosphorylation of eIF2α; also recorded: stimulate the ISR by promoting the phosphorylation of eIF2α”.
Turning to `OCCCN1CCCC2CC1c1cc(-c3ccc(C(F)(F)F)cc3)ccc12` (stereo not shown) [UKH-1114], in experiment [9], the neuronal toxicity result was “reduces neuronal toxicity”. For the same compound, in experiment [7], the “mechanical hypersensitivity / antinociceptive effect” value is recorded as “alleviates mechanical hypersensitivity following nerve injury”.
In the case of `O=C1CN=C(c2ccccc2Cl)c2cc([N+](=O)[O-])ccc2N1` [clonazepam, reference compound], the “LogKi, BZP Rat Brain” value at BZP Rat Brain (given as LogKi with negative sign) is given as -8.89. For the same compound, the inhibitory constant (Ki) on BZP Rat Brain (read-out: Ki, BZP Rat Brain) was determined as 1.29 nM.
